Common to all, as to assay: DTP human tumour cell line panel, 48 h
The test system of test [1] is 786-0 renal.
The test system of test [2] is CAKI-1 renal.
Test [3] relates to HOP-92 NSCLC.
For test [4], the system named is LOX IMVI melanoma.
Test [5] has as its system MALME-3M melanoma.
Test [6] relates to SF-539 CNS.
Test [7] relates to UACC-62 melanoma.
Test [8] deals with HCC-2998 colon.
The subject of test [9] is MCF7 breast.
Test [10] relates to MDA-MB-231 breast.

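All cell lines were grown in 96-well plates and treated with compound for 48 hours. Here, GI50 denotes the concentration required for 50% inhibition of growth. TGI denotes the concentration required for complete inhibition of growth.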

As a reminder, the TGI is the concentration giving total growth inhibition. A higher TGI goes with less potent growth arrest. `COC(=O)CCC(=O)C(C#N)c1ccc(Cl)cc1Cl` (stereo not given): the total growth inhibition concentration (TGI) in test [1], in test [2], in [3], in test [4], in [5] and in test [6] was > 100 µM in each case. For the same compound, in test [7], the TGI is > 100 µM.
For the compound `NC(CCCNCc1ccccc1O)C(=O)O` (stereo not given), the TGI in test [1], in [2], in test [3], in test [4], in test [5] and in test [6] was > 100 µM in each case. The total growth inhibition concentration (TGI) in test [7] was > 100 µM.
Regarding `[O-][N+]1=C(c2ccccc2)COc2ccccc21`, the TGI in test [1], in test [2], in [8], in test [3], in test [4] and in test [5] was > 100 µM throughout. Also, the TGI in [6] and in [7] was > 100 µM in each case.
In the case of `C/C(CN1C(=O)c2ccccc2C1=O)=N\NS(C)(=O)=O`, the TGI in test [1], in test [2], in test [8], in [5], in [6] and in test [7] was > 100 µM throughout.
As for `Clc1ccc(CCn2cncn2)c(Cl)c1`, the concentration for total growth inhibition (TGI) in test [1], in [2], in [8], in test [3], in test [6] and in [7] was > 100 µM in each case.
Usually GI50 stands for the concentration at which growth is held to half of that of the control. For `COC(C(=O)[C@@H](O)[C@@H](C)O)[C@@H]1Cc2cc3cc(O[C@H]4C[C@@H](O[C@H]5C[C@@H](O)[C@H](O)C(C)O5)[C@H](O)C(C)O4)c(C)c(O)c3c(O)c2C(=O)[C@H]1O[C@H]1C[C@@H](O[C@H]2C[C@@H](O[C@H]3C[C@@H](O)[C@@H](O)C(C)O3)[C@@H](O)C(C)O2)[C@H](O)C(C)O1` (stereo not given in full), the 50% growth inhibitory concentration (GI50) in test [1] is 0.305 µM; in test [2], 5.78 µM; in test [8] it was 0.569 µM; in [3], 0.119 µM; in [4], 0.0639 µM; in [5], 0.114 µM. In addition, the 50% growth inhibitory concentration (GI50) is 0.0415 µM in test [9], 0.147 µM in test [6] and 0.0564 µM in test [7]. Further, the TGI in test [1] was > 32.5 µM; in test [2], > 32.5 µM; in test [8], 7.74 µM; in [3], 2.03 µM; in test [4] it was 0.471 µM; in [5] it was 2.41 µM. The TGI is > 32.5 µM in test [9], 2.82 µM in [6] and 0.283 µM in test [7].
As for `C/C(CC(=O)Nc1ccc([N+](=O)[O-])cc1)=N/N=C(N)N`, the concentration for total growth inhibition (TGI) in test [1], in test [8], in test [3], in test [4], in [5] and in test [6] was > 100 µM throughout. In test [7], the concentration for total growth inhibition (TGI) is > 100 µM.
For the compound `N#Cc1ccccc1/C=N/O`, the TGI in test [1], in test [2], in test [8], in test [3], in test [4] and in test [5] was > 100 µM each time. In addition, the TGI in test [6] and in test [7] was > 100 µM throughout.
Regarding `Cc1cc2c(=O)cc(-c3ccc(C(=O)O)cc3)oc2c(C(=O)O)c1C`, the concentration for total growth inhibition (TGI) in [1], in test [2], in test [8], in test [3], in [4] and in [5] was > 100 µM in each case. Also, the TGI in test [6] and in test [7] was > 100 µM throughout.
Take `O=C(Nc1ccc(Cl)cc1Cl)/C(Cl)=C1/Sc2ccccc2NC1=O`: the total growth inhibition concentration (TGI) in test [1] is > 100 µM; in test [2], > 100 µM; in test [8] it was > 100 µM; in test [3], 51.6 µM; in [4], > 100 µM; in test [5], 77.9 µM. Moreover, the concentration for total growth inhibition (TGI) in test [6] and in test [7] was > 100 µM in each case.
As for `O=C(Cc1nc2ccccc2s1)NC12CC3CC(CC(C3)C1)C2`, the total growth inhibition concentration (TGI) in test [1], in test [2], in test [8], in test [3], in [4] and in test [5] was > 100 µM in each case. For the same compound, the TGI in test [6] and in test [7] was > 100 µM each time.
On to `CC1=C(C(=O)Nc2ccc(Cl)c(Cl)c2)C(c2cccc(O)c2)NC(=S)N1` (stereo not given), for which the GI50 in [1] was 9.47 µM; in test [2] it was 14.4 µM; in test [3] it was 13.6 µM; in [4] it was 7.09 µM; in [10] it was 8.44 µM; in [6], 8.15 µM. The GI50 in [7] is 7.09 µM. In addition, the TGI turned out to be 20 µM in test [1]; 38.5 µM in test [2]; 35.2 µM in test [3]; 13.8 µM in test [4]; 20 µM in test [10]; 15.7 µM in [6]. In [7], this compound returned a concentration for total growth inhibition (TGI) of 14.7 µM.
For the compound `COc1ccc(OC)c2c3c(ncc12)-c1cc2c(cc1C3)OCO2`, the GI50 in test [1] is 22.5 µM; in test [2], > 100 µM; in test [8], > 100 µM; in [3], > 100 µM; in test [4] it was 0.104 µM; in [10], 4.76 µM. In addition, the GI50 in test [7] was > 100 µM. Further, the TGI in [1] is > 100 µM; in test [2], > 100 µM; in test [8], > 100 µM; in [3], > 100 µM; in test [4], 1.85 µM; in test [10] it was > 100 µM. Further, the total growth inhibition concentration (TGI) in test [7] was > 100 µM.
Regarding `O=C(/C=C/c1ccc2c(c1)OCO2)c1ccccc(=O)c1O`, the TGI in test [1] was > 100 µM; in [2] it was 24.1 µM; in test [3] it was 72.9 µM; in test [4] it was > 100 µM; in test [5] it was 60 µM; in test [10], > 100 µM. The same compound yielded a TGI in [7] of 29.2 µM.
As for `C=C1CCC2C(C)(CO)C(O)CCC2(C)C1CC(O)C1=CCOC1=O` (stereo not given), the TGI in test [1] is 71.6 µM; in test [2], > 100 µM; in test [8], 40.8 µM; in [3], > 100 µM; in test [4], > 100 µM; in test [5], > 100 µM. For the same compound, the concentration for total growth inhibition (TGI) was 55 µM in [6] and > 100 µM in test [7].
As for `Cn1c(-c2ccccc2)c/c(=N\NS(C)(=O)=O)c2cc(S(=O)(=O)O)ccc21`, the TGI in test [1], in test [2], in test [8], in test [3], in test [4] and in test [5] was > 100 µM in each case. For the same compound, the TGI in test [6] and in [7] was > 100 µM throughout.
On to `COC(=O)c1cc(O)ccc1NC(=O)c1ccc(O)cc1`, for which the TGI in test [1], in [2], in test [8], in test [3], in [4] and in test [5] was > 100 µM in each case. The concentration for total growth inhibition (TGI) in test [6] and in test [7] was > 100 µM each time.
As to `O=[N+]([O-])c1ccc(C2N3CCCCC3[C@@H]3c4[nH]c5ccccc5c4CCN23)cc1` (stereo not given in full), the concentration for total growth inhibition (TGI) in [1] is > 100 µM; in test [2], > 100 µM; in [3], > 100 µM; in test [6], 29.9 µM; in test [7] it was 18.6 µM.
As for `O=C1CC23CC(=O)CC2(C1)c1ccccc1C3=O` (stereo not given), the TGI in test [1], in test [2], in test [8], in test [4], in test [5] and in [6] was > 100 µM throughout. For the same compound, the concentration for total growth inhibition (TGI) in [7] is > 100 µM.
For `Cn1c(C2CC(C)(C)c3c2c2ccccc2n3C)cc2ccccc21` (stereo not given), the TGI in [1], in [2], in test [8], in test [3], in test [4] and in [5] was > 304 µM each time. The TGI in test [6] and in test [7] was > 304 µM throughout.
Consider `CC1=NN(c2ccccc2)C(=O)C1C(=O)C(=O)Nc1ccc(C)cc1C` (stereo not given), for which the TGI in test [1], in [2], in test [8], in test [3], in test [4] and in test [5] was > 100 µM in each case. The TGI in test [9], in test [6] and in test [7] was > 100 µM in each case.
For the compound `COc1cc([C@@H]2c3cc4c(cc3[C@@H](NC(=O)c3ccc([N+](=O)[O-])cc3)C3COC(=O)[C@@H]32)OCO4)cc(OC)c1O` (stereo not given in full), the TGI in test [1] stood at 1.4 µM; in test [2] it was 8.42 µM; in test [8] it was 3.44 µM; in test [3] it was 40.2 µM; in test [4], 5.86 µM; in test [5], 4.89 µM. In addition, the TGI was 2.06 µM in test [6] and 2.04 µM in test [7].
`CC(C)(C)C1CCN(C(=O)c2ccccc2)CC1`: the TGI in test [1], in test [8], in test [4], in [5], in [6] and in test [7] was > 100 µM each time.
Regarding `COC(=O)C1CCc2nnc(-c3cccnc3)n21` (stereo not given), the TGI in test [1], in test [2], in test [8], in [5], in [6] and in test [7] was > 100 µM throughout.
As for `C#Cc1ccc(-n2c(/C=C/c3ccc4ccccc4n3)nc3ncccc3c2=O)cc1`, the GI50 in [1] is 0.575 µM; in test [2] it was 0.501 µM; in test [8], 0.64 µM; in [3], 0.37 µM; in test [4], 0.169 µM; in test [5] it was 0.798 µM. Moreover, the GI50 was 0.544 µM in test [10], 0.593 µM in [6] and 0.394 µM in test [7]. In addition, the total growth inhibition concentration (TGI) in test [1] came out at 2.24 µM; in test [2] it was 2.69 µM; in [8], 1.79 µM; in test [3], 1.8 µM; in [4], 0.657 µM; in [5], 2.35 µM. Moreover, the TGI in test [10] came out at 1.65 µM; in test [6], 1.93 µM; in test [7], 1.75 µM.
With `CN(C)CCOc1cccc(NC2=C(Cl)C(=O)C(Nc3cccc(OCCN(C)C)c3)=C(Cl)C2=O)c1`, the GI50 in test [1] is 0.49 µM; in test [2], 1.44 µM; in test [8], 1.44 µM; in [3], 0.184 µM; in test [4], 0.191 µM; in test [5], 0.275 µM. Also, the GI50 in test [10] was 0.54 µM; in [6], 1.62 µM; in test [7] it was 1.2 µM. Further, the TGI in test [1] is 1.12 µM; in [2], 2.81 µM; in test [8], 3 µM; in test [3], 0.408 µM; in test [4], 0.407 µM; in test [5], 0.827 µM. In addition, the results for the concentration for total growth inhibition (TGI) in test [10], in test [6] and in test [7] were 1.17 µM, 2.98 µM and 2.57 µM, respectively.
In the case of `O=c1[nH]c(C2CCCCC2)nc2cc(Cl)ccc12`, the total growth inhibition concentration (TGI) was > 100 µM in test [1]; > 100 µM in [2]; > 100 µM in [8]; 94.3 µM in [3]; > 100 µM in [5]; > 100 µM in test [6]. For the same compound, the TGI in [7] is > 100 µM.
Consider `O=C(CCc1cc(-c2ccco2)n(-c2ccc([N+](=O)[O-])cc2[N+](=O)[O-])n1)Nc1ccccc1`, for which the total growth inhibition concentration (TGI) in [1] is > 100 µM; in test [2], > 100 µM; in test [8], > 100 µM; in test [3], > 100 µM; in test [5], 94.2 µM; in test [6] it was > 100 µM. In [7], the concentration for total growth inhibition (TGI) is > 100 µM.
For `FC(F)(F)c1ccccc1C=NC12CC3CC(CC(C3)C1)C2`, the TGI in test [1], in test [2], in test [8], in [4], in [5] and in test [6] was > 100 µM each time.
